The record followed here is patent publication US8329913B2, “Carbazole derivative, solvate thereof, or pharmaceutically acceptable salt thereof” (Zeria Pharmaceutical Co., Ltd., priority 2004, dated 2012).

The structures appear in SMILES notation.

The target in one experiment is T1, human PPARγ (Homo sapiens, UniProt P37231).
T1 construct: 1.6 kb of fragment of the prepared plasmid pGEMT-hPPARg2 including human PPARγ gene; expressed in transfected cells; host or cells: CV-1 cells, transient transfection with pCI-hPPARg2, pCI-hRXRa and the reporter pGL3-PPRE3-TK
T1 sequence (P37231 1-505): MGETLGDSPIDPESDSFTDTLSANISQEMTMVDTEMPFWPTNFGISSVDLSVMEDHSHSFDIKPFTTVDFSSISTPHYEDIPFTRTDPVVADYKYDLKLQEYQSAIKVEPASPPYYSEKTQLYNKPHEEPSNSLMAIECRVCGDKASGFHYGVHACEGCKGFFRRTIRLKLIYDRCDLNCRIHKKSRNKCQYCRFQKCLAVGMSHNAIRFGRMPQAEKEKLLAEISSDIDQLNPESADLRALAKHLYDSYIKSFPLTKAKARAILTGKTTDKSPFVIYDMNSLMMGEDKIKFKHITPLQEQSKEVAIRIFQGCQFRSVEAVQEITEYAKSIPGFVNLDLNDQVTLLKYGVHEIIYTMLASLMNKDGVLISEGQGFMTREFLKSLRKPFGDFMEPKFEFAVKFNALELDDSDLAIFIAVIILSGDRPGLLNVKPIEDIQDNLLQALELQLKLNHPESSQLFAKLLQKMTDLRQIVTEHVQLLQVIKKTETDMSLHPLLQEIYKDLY
T1 sequence (P19793 1-462 partner): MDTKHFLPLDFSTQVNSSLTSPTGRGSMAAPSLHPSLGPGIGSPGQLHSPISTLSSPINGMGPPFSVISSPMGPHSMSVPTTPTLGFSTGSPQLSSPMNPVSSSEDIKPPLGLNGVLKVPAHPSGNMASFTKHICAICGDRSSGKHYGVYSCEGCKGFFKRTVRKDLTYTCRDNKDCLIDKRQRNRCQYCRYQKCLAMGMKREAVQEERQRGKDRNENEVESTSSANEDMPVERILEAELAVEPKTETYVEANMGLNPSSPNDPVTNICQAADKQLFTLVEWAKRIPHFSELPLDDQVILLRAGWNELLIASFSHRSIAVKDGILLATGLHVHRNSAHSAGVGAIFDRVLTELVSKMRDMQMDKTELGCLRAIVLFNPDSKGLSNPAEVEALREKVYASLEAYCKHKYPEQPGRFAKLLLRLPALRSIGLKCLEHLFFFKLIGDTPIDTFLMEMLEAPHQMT
Kind of experiment: Human PPARγ antagonist assay (luciferase reporter in transfected CV-1 cells). The experiment is classed as cell-based. The note with it: CV-1 cells expressing human PPARγ and RXRα with reporter plasmid; pioglitazone 1 μM as stimulant; 24 hours; read-out: Human PPARγ antagonist activities, Inhibition IC50. How it is done: CV-1 cells (96 well plate), where human PPARγ and RXRα has expressed in the transient transfection of reporter plasmid (see reference 5a) were washed once with PBS (100 μL/well), and then supplemented with 100 μL/well […], as well as pioglitazone (not limited to pioglitazone shown as an example, but may be any PPARγ agonist) at a final concentration of 1 μM as a stimulant were added, and incubated in a 5% CO2 incubator at 37° C. for 24 hours. After removing the medium, the CV-1 cells were washed once with PBS (100 μL/well), and supplemented with 60 μL/well of 1× Passive Lysis Buffer (manufactured by Promega Corporation). The CV-1 cells were incubated at room temperature for 30 minutes, stirred, and then by using Dual-Luciferase Reporter Assay System (manufactured by Promega Corporation), luciferase activities of firefly and renilla were measured using 1420 ARVO Multilabel Counter (manufactured by Wallac Oy). Also, the same experiments as that described above were respectively carried out for the cases where only the above-mentioned stimulants (100 nM, 1 μM, 10 μM) were used, where only the above-mentioned test compounds were used, or where neither was used (nonsupplemented), and luciferase activities of firefly and renilla were measured. Values corrected by dividing the firefly luciferase activities by the renilla luciferase activities were calculated as specific activities and used for evaluations.
Human PPARγ2 antagonist activities of the test compounds were evaluated by using a percentage (inhibition) where the specific activity in case only […] was added is regarded as 0% and the specific activity in case the test compound and the stimulant were not added is regarded as 100%. Moreover, the concentration of the test compound indicating the inhibition rate of 50% was calculated as the IC50 value. Also, human PPARγ2 agonist activities of the test compounds were evaluated by using a percentage (activity) where the specific activity when nonsupplemented is regarded as 0% and the specific activity in case only 10 μM stimulant was added is regarded as 100%, from the specific activity in case only the test compound is used.
CV-1 cells were cultured in DMEM medium (manufactured by Invitrogen Corporation) including 10% fetal bovine serum (manufactured by Dainippon Pharmaceutical Co., Ltd.) in 225T-Flask (manufactured by Corning Costar). The cells were detached by 0.5 g/L trypsin-0.2 g/L EDTA (ethylene diamine tetra-acetic acid) (manufactured by Invitrogen Corporation), and then suspended in the DMEM medium including 10% fetal bovine serum to a cell concentration of 2×10^5 cells/mL. Thereafter, the cells were seeded into 96 well plate at 2×10^4 cells/0.1 mL/well, incubated in the 5% CO2 incubator at 37° C. overnight, and then the plasmids prepared by the above-mentioned reference 1a, reference 3a, and reference 4a were transfected into cells by using a lipofectamine reagent (manufactured by Invitrogen Corporation) according to the attached manual.
Namely, after CV-1 cells were cultured overnight, the cells were washed with PBS (100 μL/well). Thereafter the cells were incubated for 5 hours at 37° C./5% CO2 in the MEM medium (manufactured by Invitrogen Corporation) including 430 ng/mL of human PPARγ expression plasmid (pCI-hPPARg2) prepared by the reference 1a, 430 ng/mL of human RXRα expression plasmid (pCI-hRXRa) prepared by the reference 3a, and 140 ng/mL of the reporter plasmid (pGL3-PPRE3-TK) prepared by the reference 4a, 10 ng/mL of phRL-TK vector (manufactured by Promega Corporation) and 2 μL/mL of lipofectamine.
A general note: In a reporter assay the amount or activity of a reporter protein is the signal.
A word on the IC50: it is the point on the concentration scale where inhibition reaches its midpoint. For the compound `COc1cc(Cn2c3ccccc3c3c(OC(C)C(=O)O)cccc32)ccc1OCc1nc(-c2ccccc2)oc1C` (racemic) [Example 4, (±)-2-{9-[3-methoxy-4-((5-methyl-2-phenyl-oxazole-4-yl)methoxy)-benzyl]-9H-carbazole-4-yloxy}propionic acid], the IC50 amounted to 939 nM. As to `CCC(Oc1cccc2c1c1ccccc1n2Cc1ccc(OCc2nc(-c3ccccc3)oc2C)c(OC)c1)C(=O)O` (racemic) [Example 5, (±)-2-{9-[3-methoxy-4-((5-methyl-2-phenyl-oxazole-4-yl)methoxy)-benzyl]-9H-carbazole-4-yloxy}butyric acid], the concentration for half-maximal inhibition (IC50) was found to be 353 nM.

With `COc1cc(Cn2c3ccccc3c3c(OCCC(C)C(=O)O)cccc32)ccc1OCc1nc(-c2ccccc2)oc1C` (racemic) [Example 27, (±)-4-{9-[3-methoxy-4-((5-methyl-2-phenyl-oxazole-4-yl)methoxy)-benzyl]-9H-carbazole-4-yloxy}-2-methyl-butyric acid], the concentration for half-maximal inhibition (IC50) worked out at 688 nM. The same measure, in the same setting: the same measure for `COc1cc(Cn2c3ccccc3c3c(OC(C)C(=O)[O-])cccc32)ccc1OCc1nc(-c2ccccc2)oc1C.[Na+]` (racemic) [Example 30]: 983 nM; for `COc1cc(Cn2c3ccccc3c3c(OCCC(C)C(=O)[O-])cccc32)ccc1OCc1nc(-c2ccccc2)oc1C.[Na+]` (racemic) [Example 37]: 354 nM; for `COc1cc(Cn2c3ccccc3c3c(OC(C)(C)C(=O)O)cccc32)ccc1OCc1nc(-c2ccccc2)oc1C` [Example 3, 2-{9-[3-methoxy-4-((5-methyl-2-phenyl-oxazole-4-yl)methoxy)-benzyl]-9H-carbazole-4-yloxy}-2-methyl-propionic acid]: 420 nM. Regarding `COc1cc(Cn2c3ccccc3c3c(OC(C)(C)C(=O)O)cccc32)ccc1OCc1nc(-c2ccco2)oc1C` [Example 7, 2-{9-[4-((2-(furan-2-yl)-5-methyl-oxazole-4-yl)methoxy)-3-methoxy-benzyl]-9H-carbazole-4-yloxy-}2-methyl-propionic acid], the 50% inhibitory concentration (IC50) amounted to 1910 nM. Same read-out and setting: as for `COc1cc(Cn2c3ccccc3c3c(OC(C)(C)C(=O)O)cccc32)ccc1OCc1nc(-c2cccs2)oc1C` [Example 8, 2-{9-[3-methoxy-4-((5-methyl-2-(thiophene-2-yl)-oxazole-4-yl)methoxy)-benzyl]-9H-carbazole-4-yloxy}-2-methyl-propionic acid], the figure is 545 nM; as for `COc1cc(Cn2c3ccccc3c3c(OC(C)(C)C(=O)O)cccc32)ccc1OCc1nc(-c2ccncc2)oc1C` [Example 9, 2-{9-[3-methoxy-4-((5-methyl-2-(pyridine-4-yl)-oxazole-4-yl)methoxy)-benzyl]-9H-carbazole-4-yloxy}-2-methyl-propionic acid], 5140 nM.

Turning to `Cc1oc(-c2ccccc2)nc1COc1ccc(Cn2c3ccccc3c3c(OC(C)(C)C(=O)O)cccc32)cc1` [Example 13, 2-methyl-2-{9-[4-((5-methyl-2-phenyl-oxazole-4-yl)methoxy)-benzyl]-9H-carbazole-4-yloxy}propionic acid], the concentration for half-maximal inhibition (IC50) worked out at 5870 nM. For `COc1cc(Cn2c3ccccc3c3c(OC(C)(C)C(=O)O)cccc32)ccc1OCc1nc(-c2ccccc2)sc1C` [Example 15, 2-{9-[3-methoxy-4-((5-methyl-2-phenyl-thiazole-4-yl)methoxy)-benzyl]-9H-carbazole-4-yloxy}-2-methyl-propionic acid], the IC50 came to 5980 nM. For the compound `COc1cc(Cn2c3ccccc3c3c(OCC(C)(C)C(=O)O)cccc32)ccc1OCc1nc(-c2ccccc2)oc1C` [Example 22, 3-{9-[3-methoxy-4-((5-methyl-2-phenyl-oxazole-4-yl)methoxy)-benzyl]-9H-carbazole-4-yloxy}-2,2-dimethyl-propionic acid], the IC50 worked out at 122 nM.

The experiment is the same for the next values; noted with them: at 10 μM test compound; CV-1 cells expressing human PPARγ and RXRα; pioglitazone as stimulant; read-out: Human PPARγ antagonist activities, Inhibition % at 10 μM.
In general, inhibition refers to the change of the read-out against control, counted positive when it falls. For the compound `COc1cc(Cn2c3ccccc3c3c(OC(C)(C)C(=O)O)cccc32)ccc1OCc1sc(-c2ccccc2)nc1C` [Example 16, 2-{9-[3-methoxy-4-((4-methyl-2-phenyl-thiazole-5-yl)methoxy)-benzyl]-9H-carbazole-4-yloxy}-2-methyl-propionic acid], the inhibition at 10 µM worked out at 38.2%.
